Measurements taken from ChEMBL document CHEMBL1201862, “PubChem BioAssay data set” (2004).
The source made the active and inactive calls.

Key:
[1] = Luminescence Cell-Based Dose Response to Identify Activators of 5'UTR Stem-Loop Driven Prion Protein mRNA Translation in H4-C Neuroglioblastoma Cells. [Related pubchem assays: 1829 (Project Summary), 1814 (Primary HTS)]; assay type: functional
H4 = experiment: Luminescence Cell-Based Dose Response HTS to Identify Activators of 5'UTR Stem-Loop Driven Prion Protein mRNA Translation in H4 Neuroglioblastoma Cells. [Related pubchem assays: 1829 (Project Summary), 1814 (Primary HTS)]; assay type: functional; details: Homo sapiens
[2] = Luminescence Cell-Based Dose Response HTS to Identify Activators of Luciferase Translation or Activity in H4 […] Cells. [Related pubchem assays: 1829 (Project Summary), 1814 (Primary HTS)]; assay type: functional
[3] = Luminescence Cell-Based Dose Response to Identify Activators of Luciferase Translation or Activity in H4-C Neuroglioblastoma Cells. [Related pubchem assays: 1829 (Project Summary), 1814 (Primary HTS)]; assay type: functional
[4] = Luminescence Cell-Based Dose Confirmation to Identify Activators of 5'UTR Stem-Loop Driven Alpha-Synuclein mRNA Translation in H4 Neuroglioblastoma Cells. [Related pubchem assays: 1829 (Project Summary), 1814 (Primary HTS)]; assay type: functional
[5] = target: Peroxisome proliferator-activated receptor gamma/Nuclear receptor coactivator 2 (Homo sapiens, UniProt P37231); assay type: functional;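 note: agonist potency for raising coactivator recruitment to the receptor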
[6] = target: Peroxisome proliferator-activated receptor gamma/Nuclear receptor coactivator 3 (Homo sapiens, UniProt P37231); assay type: functional;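 note: agonist potency for raising coactivator recruitment to the receptor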
[7] = target: Peroxisome proliferator-activated receptor gamma/Nuclear receptor coactivator 1 (Homo sapiens, UniProt P37231); assay type: functional;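 note: agonist potency as compounds enhance coactivator SRC-1 recruitment to PPARgamma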
[8] = target: Aryl hydrocarbon receptor (Homo sapiens, UniProt P35869); experiment: Luminescence-based cell-based high throughput dose response assay for activators of the Aryl Hydrocarbon Receptor (AHR). [Related pubchem assays: 2796 (Primary screen (AHR activators in singlicate)), 2845 (Confirmation screen (AHR activators in triplicate)), 434939 (Counterscreen (PXR activators in triplicate)), 2804 (Summary (AHR activators))]; assay type: ADME
[9] = target: T1, DNA repair protein RAD52 homolog (Homo sapiens, UniProt P43351); assay type: functional, biochemical
T1 sequence (P43351 whole entry): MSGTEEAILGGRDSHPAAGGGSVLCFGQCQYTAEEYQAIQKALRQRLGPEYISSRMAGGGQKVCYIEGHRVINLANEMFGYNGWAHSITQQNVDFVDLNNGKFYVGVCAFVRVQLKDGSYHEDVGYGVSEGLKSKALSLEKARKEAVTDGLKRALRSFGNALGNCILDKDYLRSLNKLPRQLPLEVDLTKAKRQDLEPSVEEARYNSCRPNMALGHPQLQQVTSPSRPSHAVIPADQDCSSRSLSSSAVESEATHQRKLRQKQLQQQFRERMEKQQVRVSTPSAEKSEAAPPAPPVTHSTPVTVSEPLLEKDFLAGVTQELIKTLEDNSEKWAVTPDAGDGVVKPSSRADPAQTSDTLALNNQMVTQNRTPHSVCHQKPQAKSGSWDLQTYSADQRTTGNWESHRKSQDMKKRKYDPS

CAAX prenyl protease 2 [10] = target: T2, CAAX prenyl protease 2 (Saccharomyces cerevisiae S288c, UniProt Q03530); assay type: biochemical
T2 sequence (Q03530 whole entry): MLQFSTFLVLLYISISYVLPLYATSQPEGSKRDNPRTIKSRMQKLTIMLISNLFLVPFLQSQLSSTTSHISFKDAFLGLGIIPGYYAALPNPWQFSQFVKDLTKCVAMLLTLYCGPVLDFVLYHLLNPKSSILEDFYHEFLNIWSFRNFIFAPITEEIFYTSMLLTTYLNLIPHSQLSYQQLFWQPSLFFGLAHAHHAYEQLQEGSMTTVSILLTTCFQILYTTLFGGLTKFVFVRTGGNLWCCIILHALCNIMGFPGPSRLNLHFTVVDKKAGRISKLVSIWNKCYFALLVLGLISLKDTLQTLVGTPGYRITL

CAAX prenyl protease 2 [11] = target: T3, CAAX prenyl protease 2 (Homo sapiens, UniProt Q9Y256); experiment: human Rce1 protease inhibitors, dose response, biochemical, yeast membranes, quenched-peptide fluorescence, cherry-pick (AID 588849)
T3 sequence (Q9Y256 whole entry): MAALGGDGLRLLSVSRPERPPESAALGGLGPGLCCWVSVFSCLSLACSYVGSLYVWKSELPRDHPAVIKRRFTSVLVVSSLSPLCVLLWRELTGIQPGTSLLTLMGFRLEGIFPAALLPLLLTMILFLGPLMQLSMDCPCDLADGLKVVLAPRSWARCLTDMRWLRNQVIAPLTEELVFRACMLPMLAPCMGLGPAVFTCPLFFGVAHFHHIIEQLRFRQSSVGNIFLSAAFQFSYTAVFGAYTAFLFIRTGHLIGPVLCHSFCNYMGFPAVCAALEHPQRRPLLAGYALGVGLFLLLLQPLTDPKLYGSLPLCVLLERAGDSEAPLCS

[12] = target: T4, DNA repair and recombination protein RAD54-like (Homo sapiens, UniProt Q92698); experiment: inhibitors of human RAD54 branch migration, confirmation, biochemical, fluorescence, cherry-picked samples, dose series (AID 651657); assay type: functional
T4 sequence (Q92698 whole entry): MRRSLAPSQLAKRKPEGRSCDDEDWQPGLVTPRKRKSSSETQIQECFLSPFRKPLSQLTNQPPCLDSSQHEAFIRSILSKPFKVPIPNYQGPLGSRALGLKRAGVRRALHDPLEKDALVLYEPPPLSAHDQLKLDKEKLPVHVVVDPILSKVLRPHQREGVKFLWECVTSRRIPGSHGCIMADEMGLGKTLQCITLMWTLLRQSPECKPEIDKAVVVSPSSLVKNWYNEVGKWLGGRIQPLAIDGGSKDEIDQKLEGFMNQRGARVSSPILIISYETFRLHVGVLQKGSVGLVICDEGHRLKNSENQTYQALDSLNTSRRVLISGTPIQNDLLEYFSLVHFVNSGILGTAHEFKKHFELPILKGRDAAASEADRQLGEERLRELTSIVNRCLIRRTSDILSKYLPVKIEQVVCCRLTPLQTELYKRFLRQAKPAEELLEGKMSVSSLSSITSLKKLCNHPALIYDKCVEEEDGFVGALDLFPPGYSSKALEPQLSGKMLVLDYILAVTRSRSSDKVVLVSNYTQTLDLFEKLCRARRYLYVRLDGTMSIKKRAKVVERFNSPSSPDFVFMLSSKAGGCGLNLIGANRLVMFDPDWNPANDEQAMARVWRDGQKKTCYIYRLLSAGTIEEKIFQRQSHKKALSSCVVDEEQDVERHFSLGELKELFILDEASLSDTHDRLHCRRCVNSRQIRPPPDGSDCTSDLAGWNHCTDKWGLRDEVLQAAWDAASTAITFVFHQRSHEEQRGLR

Trypsin = Trypsin (Sus scrofa, UniProt P00761); experiment: porcine trypsin inhibitors, dose response, selectivity assay for Rce1 protease inhibitor project, biochemical, quenched peptide fluorescence, cherry-pick (AID 488789)
[13] = target: T5, Neuropeptide Y receptor type 2 (Homo sapiens, UniProt P49146); assay type: functional, cell-based;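 note: HEK293 cells expressing the receptor and a CNG channel; stimulus was NPY near EC95 followed by isoproterenol to raise cAMP; antagonist potency measured as restoring cAMP signal that NPY suppresses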
T5 sequence (P49146 whole entry): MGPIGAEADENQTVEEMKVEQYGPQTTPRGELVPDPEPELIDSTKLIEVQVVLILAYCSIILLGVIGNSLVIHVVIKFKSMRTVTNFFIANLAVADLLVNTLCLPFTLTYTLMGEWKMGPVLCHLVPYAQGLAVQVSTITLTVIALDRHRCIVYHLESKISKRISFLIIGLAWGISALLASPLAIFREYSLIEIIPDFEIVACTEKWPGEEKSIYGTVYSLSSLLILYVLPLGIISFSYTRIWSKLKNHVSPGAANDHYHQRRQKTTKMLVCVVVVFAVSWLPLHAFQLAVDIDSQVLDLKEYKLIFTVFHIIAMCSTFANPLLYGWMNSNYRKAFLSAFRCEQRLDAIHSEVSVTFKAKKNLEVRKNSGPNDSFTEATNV

[14] = target: T6, Neuropeptide Y receptor type 1 (Homo sapiens, UniProt P25929); assay type: functional;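 note: HEK293 cells with a CNG channel challenged with NPY then isoproterenol; potency as antagonist that reverses NPY suppression of cAMP signal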
T6 sequence (P25929 whole entry): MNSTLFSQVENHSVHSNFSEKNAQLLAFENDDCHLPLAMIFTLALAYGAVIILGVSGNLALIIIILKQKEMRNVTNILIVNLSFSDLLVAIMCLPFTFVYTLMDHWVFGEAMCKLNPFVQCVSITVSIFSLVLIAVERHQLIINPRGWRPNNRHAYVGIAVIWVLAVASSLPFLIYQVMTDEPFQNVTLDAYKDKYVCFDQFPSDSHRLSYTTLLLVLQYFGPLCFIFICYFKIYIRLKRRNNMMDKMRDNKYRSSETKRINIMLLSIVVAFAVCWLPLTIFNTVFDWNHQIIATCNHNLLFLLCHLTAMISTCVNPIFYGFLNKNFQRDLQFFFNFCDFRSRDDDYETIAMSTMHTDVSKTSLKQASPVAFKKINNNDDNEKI

[15] = target: T7, Short transient receptor potential channel 4 (Mus musculus, UniProt Q9QUQ5); experiment: mouse TRPC4 channel inhibitors, dose response, cell-based, HEK293 TRPC4/mu-opioid, Fluo-4 calcium (AID 434942); assay type: functional;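 note: potency of inhibitors blocking the TRPC4 calcium response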
T7 sequence (Q9QUQ5 whole entry): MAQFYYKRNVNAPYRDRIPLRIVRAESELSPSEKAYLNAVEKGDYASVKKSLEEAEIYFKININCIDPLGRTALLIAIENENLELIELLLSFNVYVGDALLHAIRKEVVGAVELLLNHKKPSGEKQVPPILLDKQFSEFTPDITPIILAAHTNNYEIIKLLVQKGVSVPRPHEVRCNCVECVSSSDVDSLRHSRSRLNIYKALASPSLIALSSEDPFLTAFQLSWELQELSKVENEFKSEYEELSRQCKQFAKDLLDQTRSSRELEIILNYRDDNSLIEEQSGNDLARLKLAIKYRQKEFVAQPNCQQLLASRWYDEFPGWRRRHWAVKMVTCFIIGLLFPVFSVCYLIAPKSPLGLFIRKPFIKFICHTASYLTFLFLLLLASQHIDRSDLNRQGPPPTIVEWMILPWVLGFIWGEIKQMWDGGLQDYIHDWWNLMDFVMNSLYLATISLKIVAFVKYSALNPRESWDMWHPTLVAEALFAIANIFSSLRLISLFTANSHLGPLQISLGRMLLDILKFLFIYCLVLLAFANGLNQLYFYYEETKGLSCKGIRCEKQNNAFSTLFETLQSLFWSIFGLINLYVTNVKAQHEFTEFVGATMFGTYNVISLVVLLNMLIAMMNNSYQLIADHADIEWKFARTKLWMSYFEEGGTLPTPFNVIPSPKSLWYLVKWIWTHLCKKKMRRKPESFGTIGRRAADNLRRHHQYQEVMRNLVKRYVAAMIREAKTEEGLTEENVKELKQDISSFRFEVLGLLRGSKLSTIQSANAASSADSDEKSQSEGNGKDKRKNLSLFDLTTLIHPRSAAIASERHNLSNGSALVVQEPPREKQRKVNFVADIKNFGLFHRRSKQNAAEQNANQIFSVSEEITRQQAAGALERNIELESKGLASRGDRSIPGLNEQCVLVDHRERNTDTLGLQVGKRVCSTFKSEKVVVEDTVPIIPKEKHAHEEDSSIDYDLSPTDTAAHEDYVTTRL

[16] = target: Epstein-Barr nuclear antigen 1 (Epstein-Barr virus (strain B95-8) (HHV-4) (Human herpesvirus 4), UniProt P03211); experiment: EBNA-1 inhibitors, dose response, biochemical, fluorescence polarization, 1536-well (AID 2381); set-up: species or system human gammaherpesvirus 4;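 note: fluorescence polarization of a Cy5 DNA probe bound by EBNA-1 protein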
[17] = target: Lytic switch protein BZLF1 (Epstein-Barr virus (strain B95-8) (HHV-4) (Human herpesvirus 4), UniProt P03206); experiment: EBV ZTA inhibitors, dose response, counter-screen for EBNA-1 inhibitor project, biochemical, fluorescence polarization, Epstein-Barr virus, 1536-well (AID 2377); set-up: species or system human gammaherpesvirus 4;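 note: fluorescence polarization of Cy5-labelled ZRE DNA probe bound by purified Zta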
HeLa = experiment: HeLa cell cytotoxicity, dose response, cytotoxicity control for MITF activator project, CellTiter-Glo luminescence, cherry-pick samples (AID 540259); assay type: functional, cell-based; details: Homo sapiens

Chain of Lytic switch protein BZLF1 (P03206 whole entry): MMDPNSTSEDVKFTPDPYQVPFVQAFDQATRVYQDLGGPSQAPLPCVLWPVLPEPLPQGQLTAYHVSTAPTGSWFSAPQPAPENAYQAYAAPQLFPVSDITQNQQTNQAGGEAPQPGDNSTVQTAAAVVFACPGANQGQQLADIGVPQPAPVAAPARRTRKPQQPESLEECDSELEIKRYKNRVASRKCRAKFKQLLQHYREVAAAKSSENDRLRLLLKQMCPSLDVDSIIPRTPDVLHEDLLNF
Chain of Aryl hydrocarbon receptor (P35869 whole entry): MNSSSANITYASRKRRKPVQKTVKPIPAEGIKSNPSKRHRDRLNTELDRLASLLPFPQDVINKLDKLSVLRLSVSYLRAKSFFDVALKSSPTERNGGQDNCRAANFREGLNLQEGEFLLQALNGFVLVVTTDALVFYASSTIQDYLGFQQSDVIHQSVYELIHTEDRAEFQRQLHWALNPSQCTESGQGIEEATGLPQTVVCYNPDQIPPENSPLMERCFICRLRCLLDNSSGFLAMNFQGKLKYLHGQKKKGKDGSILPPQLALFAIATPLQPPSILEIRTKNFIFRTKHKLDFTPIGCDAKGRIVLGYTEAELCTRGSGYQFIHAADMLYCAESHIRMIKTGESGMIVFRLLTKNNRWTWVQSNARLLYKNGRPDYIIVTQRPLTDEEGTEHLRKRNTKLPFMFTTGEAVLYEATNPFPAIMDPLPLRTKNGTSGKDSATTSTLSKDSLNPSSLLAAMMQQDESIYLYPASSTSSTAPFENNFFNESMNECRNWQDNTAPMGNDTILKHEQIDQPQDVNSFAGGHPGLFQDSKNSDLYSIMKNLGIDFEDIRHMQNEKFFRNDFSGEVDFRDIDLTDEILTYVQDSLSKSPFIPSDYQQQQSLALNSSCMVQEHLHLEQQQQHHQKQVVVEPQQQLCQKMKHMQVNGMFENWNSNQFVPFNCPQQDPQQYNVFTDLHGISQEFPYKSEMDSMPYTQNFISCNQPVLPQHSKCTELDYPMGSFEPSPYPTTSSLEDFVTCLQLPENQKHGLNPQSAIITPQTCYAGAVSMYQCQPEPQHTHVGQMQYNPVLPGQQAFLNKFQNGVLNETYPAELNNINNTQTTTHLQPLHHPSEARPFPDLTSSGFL
Chain of Epstein-Barr nuclear antigen 1 (P03211 whole entry): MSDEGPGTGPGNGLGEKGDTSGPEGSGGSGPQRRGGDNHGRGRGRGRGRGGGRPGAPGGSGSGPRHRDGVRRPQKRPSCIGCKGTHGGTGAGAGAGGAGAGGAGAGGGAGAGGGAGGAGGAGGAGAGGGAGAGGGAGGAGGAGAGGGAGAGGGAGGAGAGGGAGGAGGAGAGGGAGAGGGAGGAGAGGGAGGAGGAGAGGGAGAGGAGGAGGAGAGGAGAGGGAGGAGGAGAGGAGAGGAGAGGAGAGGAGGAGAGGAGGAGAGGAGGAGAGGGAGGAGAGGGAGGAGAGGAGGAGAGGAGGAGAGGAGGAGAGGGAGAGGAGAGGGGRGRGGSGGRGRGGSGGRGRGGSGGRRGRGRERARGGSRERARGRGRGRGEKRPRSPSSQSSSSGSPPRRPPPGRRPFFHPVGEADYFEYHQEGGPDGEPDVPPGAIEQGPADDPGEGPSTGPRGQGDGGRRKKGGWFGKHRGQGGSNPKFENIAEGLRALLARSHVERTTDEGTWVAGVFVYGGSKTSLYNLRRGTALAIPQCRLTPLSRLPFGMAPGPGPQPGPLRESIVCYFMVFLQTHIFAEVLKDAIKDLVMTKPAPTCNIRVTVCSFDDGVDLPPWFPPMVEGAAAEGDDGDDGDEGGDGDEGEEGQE
Chain of Peroxisome proliferator-activated receptor gamma/Nuclear receptor coactivator 2 (P37231 whole entry): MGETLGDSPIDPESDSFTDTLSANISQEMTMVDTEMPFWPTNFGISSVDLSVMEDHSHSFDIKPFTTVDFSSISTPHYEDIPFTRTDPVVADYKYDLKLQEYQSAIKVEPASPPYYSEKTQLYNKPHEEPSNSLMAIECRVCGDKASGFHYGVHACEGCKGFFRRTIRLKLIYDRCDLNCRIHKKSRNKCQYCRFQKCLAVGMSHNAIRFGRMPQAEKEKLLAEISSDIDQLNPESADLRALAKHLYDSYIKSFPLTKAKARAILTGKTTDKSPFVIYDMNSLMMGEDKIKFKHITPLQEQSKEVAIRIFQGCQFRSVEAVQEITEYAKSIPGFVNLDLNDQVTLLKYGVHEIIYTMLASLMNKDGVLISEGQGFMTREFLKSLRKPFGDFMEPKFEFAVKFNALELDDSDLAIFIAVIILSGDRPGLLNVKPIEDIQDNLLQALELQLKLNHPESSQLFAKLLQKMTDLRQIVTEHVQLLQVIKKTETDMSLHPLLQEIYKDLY
Chain of Peroxisome proliferator-activated receptor gamma/Nuclear receptor coactivator 2 (Q15596 whole entry, further chain): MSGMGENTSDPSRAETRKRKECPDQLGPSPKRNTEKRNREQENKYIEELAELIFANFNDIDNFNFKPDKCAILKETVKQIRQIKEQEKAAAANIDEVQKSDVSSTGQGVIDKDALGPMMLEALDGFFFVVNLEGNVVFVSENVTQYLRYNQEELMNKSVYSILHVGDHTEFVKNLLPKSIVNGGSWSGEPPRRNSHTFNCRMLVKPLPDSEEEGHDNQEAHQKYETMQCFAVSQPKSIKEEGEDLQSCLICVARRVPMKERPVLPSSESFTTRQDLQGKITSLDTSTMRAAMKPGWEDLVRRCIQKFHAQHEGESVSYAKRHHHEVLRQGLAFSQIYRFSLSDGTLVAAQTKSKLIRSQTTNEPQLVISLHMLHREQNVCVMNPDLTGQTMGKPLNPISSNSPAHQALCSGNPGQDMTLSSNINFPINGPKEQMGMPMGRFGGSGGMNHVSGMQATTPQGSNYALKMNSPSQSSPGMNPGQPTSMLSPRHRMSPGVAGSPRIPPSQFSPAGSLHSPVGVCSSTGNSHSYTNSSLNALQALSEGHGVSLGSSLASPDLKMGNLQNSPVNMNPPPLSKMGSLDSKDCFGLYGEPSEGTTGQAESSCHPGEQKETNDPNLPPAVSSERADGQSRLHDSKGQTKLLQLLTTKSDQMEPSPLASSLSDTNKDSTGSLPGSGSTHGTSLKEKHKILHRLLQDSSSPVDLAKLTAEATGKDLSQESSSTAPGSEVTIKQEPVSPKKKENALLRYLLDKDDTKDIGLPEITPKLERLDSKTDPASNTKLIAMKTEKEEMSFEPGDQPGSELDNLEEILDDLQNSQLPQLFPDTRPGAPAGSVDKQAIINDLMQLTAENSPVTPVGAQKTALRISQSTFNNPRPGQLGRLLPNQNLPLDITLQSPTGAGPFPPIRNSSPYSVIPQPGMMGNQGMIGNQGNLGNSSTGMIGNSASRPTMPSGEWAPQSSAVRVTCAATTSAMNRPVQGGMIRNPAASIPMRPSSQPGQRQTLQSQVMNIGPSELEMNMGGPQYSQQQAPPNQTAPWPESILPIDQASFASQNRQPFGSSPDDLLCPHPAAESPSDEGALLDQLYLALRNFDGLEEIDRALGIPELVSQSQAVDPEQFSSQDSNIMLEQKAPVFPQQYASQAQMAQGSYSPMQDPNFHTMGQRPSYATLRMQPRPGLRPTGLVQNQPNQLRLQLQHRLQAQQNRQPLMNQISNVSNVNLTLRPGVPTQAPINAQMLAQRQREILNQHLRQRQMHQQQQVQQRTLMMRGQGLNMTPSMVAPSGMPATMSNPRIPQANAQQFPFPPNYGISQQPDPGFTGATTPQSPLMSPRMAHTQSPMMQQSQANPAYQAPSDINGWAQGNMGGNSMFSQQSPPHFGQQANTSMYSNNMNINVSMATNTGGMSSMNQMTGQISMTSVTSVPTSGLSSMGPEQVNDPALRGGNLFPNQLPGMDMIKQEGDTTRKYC
Chain of Trypsin (P00761 whole entry): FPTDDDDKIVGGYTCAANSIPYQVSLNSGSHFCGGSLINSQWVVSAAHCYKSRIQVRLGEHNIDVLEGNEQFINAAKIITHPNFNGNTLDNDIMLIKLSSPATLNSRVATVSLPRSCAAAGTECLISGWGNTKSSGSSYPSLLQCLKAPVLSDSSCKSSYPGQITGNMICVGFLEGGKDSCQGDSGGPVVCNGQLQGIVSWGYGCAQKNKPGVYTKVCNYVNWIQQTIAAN

## Cc1nc2cc(Nc3nnc(-c4ccccc4)c4ccccc34)ccc2n1C
[1]
  EC50: > 12 µM (not active)
H4
  EC50: 31.4 µM (active)
[2]
  EC50: < 0.1 µM (active)
[3]
  EC50: > 12 µM (not active)
[4]
  EC50: 2.91 µM (active)

## CCOC(=O)c1cnc2c(C)c(Cl)ccc2c1N1CCOCC1
[5]
  EC50: > 79.4 µM (not active)
[6]
  EC50: > 79.4 µM (not active)
[7]
  EC50: > 79.4 µM (not active)

## CCCc1nn(C)c(C(=O)Nc2cccc3ccccc23)c1Cl
[8]
  EC50: 5.22 µM (active)

## CN(C)CCCN1C(=O)c2cccc3cccc(c23)C1=O
[9]
  AC50: 16.4 µM (active)
[8]
  EC50: 0.815 µM (active)
CAAX prenyl protease 2 [10]
  AC50: 68.1 µM (active)
CAAX prenyl protease 2 [11]
  AC50: 5.4 µM (active)
[12]
  AC50: 11.1 µM (active)
Trypsin
  AC50: 38 µM (active)

## CC1=NN(C(=O)Cn2ccc([N+](=O)[O-])n2)C(O)(C(F)(F)F)C1 (stereo unspecified)
[5]
  EC50: > 79.4 µM (not active)
[6]
  EC50: > 79.4 µM (not active)
[7]
  EC50: > 79.4 µM (not active)

## COc1cccc(-c2ccc(C#N)c(SCC(=O)NCCc3ccc(Cl)cc3)n2)c1
[13]
  IC50: 6.45 µM (active)
[14]
  IC50: 4.58 µM (active)

## COc1cccc(N2CC(=O)C(c3nc(O)c4ccccc4n3)=C2N)c1
[15]
  EC50: 0.133 µM (active)
[16]
  IC50: 10.2 µM (not active)
[17]
  IC50: > 111 µM (not active)

## FC(F)Oc1ccc(/N=C2\SCC3CCCCN23)cc1 (stereo unspecified)
[1]
  EC50: 1.04 µM (active)
H4
  EC50: 30.2 µM (inconclusive)
[2]
  EC50: < 0.1 µM (active)
HeLa
  AC50: 342 µM (active)
[3]
  EC50: 0.34 µM (active)
[4]
  EC50: 0.405 µM (active)

## O=C(CCCCCn1c(=S)[nH]c2cc3c(cc2c1=O)OCO3)N1CCN(Cc2ccccc2)CC1
[16]
  IC50: 14.9 µM (not active)
[17]
  IC50: > 111 µM (not active)
